Results from article PMC10136548, “Evaluation of 3D Human Intestinal Organoids as a Platform for EV-A71 Antiviral Drug Discovery” (Cells, 2023).

Experiments:
[1] = tested on: EV-A71 BrCr strain; assay: CPE inhibition in EV-A71-infected HIOs; type: cell-based, Enterovirus A71; settings: for Selectivity Index (SI) = CC50/EC50: EC50 from CPE inhibition; for EC50: Enterovirus A, EVA71, EV-A71 MOI 0.1, 72 h, read-out: EC50 based on CPE inhibition; for EV-A71-induced CPE upon visual inspection: 1.25 μM, 72 hpi
Protocol: (§1) EV-A71 BrCr strain, a gift from Prof. F. van Kuppeveld (University of Utrecht, Utrecht, The Netherlands), was propagated in RD cells, cultured in 2% FBS-DMEM at 37 °C under 5% CO2. […] EV-A71 stock titer was determined by the 50% tissue culture infective dose (TCID50) assay (Reed and Muench, 1938).
(§2) For infection, HIOs were mechanically fragmented by vigorously pipetting using a P1000 to expose the apical surface to the virus inoculum as previously described. After virus inoculation (MOI = 0.01, 0.1, or 1) with EV-A71 or mock infection, the mixture was then incubated for 2 h at 37 °C for virus adsorption. After washing, the infected HIO fragments were mixed with 20% Matrigel-organoid growth medium and seeded at 10,000 cells/well in a 96-well plate pre-coated with 20% Matrigel-organoid growth medium at 50 µL/well.
(§3) Viability of HIOs and RD cells were determined by Cell Titer-Glo® 3D Cell Viability Assay (Promega, Fitchburg, WI, USA) and Cell Titer-Glo® Luminescent Cell Viability Assay (Promega), respectively. According to the manufacturer’s instructions, in a white 96-well plate (Greiner Bio-One, Stonehouse, UK), a 1:1 ratio of reagent and spent culture medium was added to the wells and mixed, and the luminescence signal was measured by CLARIO star plus (B M G Labtech Ltd., Aylesbury, UK).
(§4) For determination of compounds’ half maximal cytotoxic concentration (CC50), the non-infected HIOs/cells were treated with compounds (0.5–100 μM) for 72 h. The viability % was calculated as follows: (luminescence reading compound treated)/(luminescence reading DMSO control) × 100. The CC50 was calculated using non-linear regression (curve fit) with GraphPad Prism 9 (GraphPad, La Jolla, CA, USA). […] The CPE inhibition % was calculated as follows: (luminescence reading compound treated)/(luminescence reading DMSO control) × 100. The EC50 was calculated using non-linear regression (curve fit) with GraphPad Prism 9 (GraphPad).
(§5) Figure 4 Comparison of antiviral activity determined by CPE inhibition and viral RNA yield between HIOs and RD cells. (A) Viability of HIOs and RD cells was measured, using Cell Titer-Glo 3D or Cell Titer-Glo, after 72 h of EV-A71 infection at MOI 0.1 and incubation with compounds at indicated concentrations. CPE inhibition is calculated based on percentage of mock-infected control. The half maximal effective concentration (EC50) was calculated using Prism nonlinear regression (GraphPad Prism 9). (B) For viral RNA yield, HIOs and RD cells were infected with EV-A71 at an MOI of 0.1 and treated with compounds at indicated concentrations for 72 h before total culture of HIOs or supernatant of cells were collected by combining triplicates and determined by RT-qPCR. Viral RNA yield is calculated based on percentage of mock-infected control. The EC50 was calculated using Prism nonlinear regression (GraphPad Prism 9). (C) Brightfield images of mock control, infection treated with 1.25 µM rupintrivir, and infected control HIOs and RD cells at 72 hpi. All images were acquired using the same objective. Scale bar, […]. (D) Images represent mock-, EV-A71-infected HIOs (0.1 MOI), and EV-A71-infected HIOs (0.1 MOI) treated with rupintrivir (10 µM) at 48 hpi: DAPI (blue) for nucleus, phalloidin (red) for F-actin, and dsRNA (green). Scale bar, […]. Data are the mean ± SEM of at least six independent experiments; each carried out in triplicate.

[2] = tested on: EV-A71 BrCr strain; assay: Viral RNA yield (RT-qPCR) in EV-A71-infected RD cells; type: cell-based, Enterovirus A71; settings: for Selectivity Index (SI) = CC50/EC50: EC50 from RNA yield; for EC50: Enterovirus A, EVA71, EV-A71 MOI 0.1, 72 h, RT-qPCR, read-out: EC50 based on RNA yield
Protocol: as §1
(§6) For RD cell line infection, 20,000 cells/well were cultured in 96-well plate at 37 °C for 24 h. To prepare virus inoculum (MOI = 0.01, 0.1, or 1), EV-A71 was diluted in 2% FBS-DMEM. Medium on cell monolayer was removed, and the inoculum was added for 1 h at 37 °C for virus adsorption. After washing, the monolayer was cultured in DMEM supplemented with 2% FBS.
(§7) RNA was extracted from harvested samples using RNeasy Plus Mini Kit (Qiagen, Hilden, Germany). cDNA was created from the isolated RNA using High-Capacity cDNA Reverse Transcription Kit (ThermoFisher Scientific, Waltham, MA, USA) according to the manufacturer’s instructions.
(§8) For EV-A71 replication quantification, each 10 µL reaction mixture contained: 5 µL of Master Mix, 1.5 µL of RNase-free water, 0.5 µL each of gene-specific forward and reverse primer, and 3 µL of cDNA as template. The reaction plate was loaded in a LightCycler® 480 Real-Time PCR System (Roche) and ran at 95 °C for 3 min for pre-incubation, followed by 40 amplification cycles of 95 °C for 15 s and 60 °C for 60 s. Signal detection and measurements were taken in each amplification cycle. The EV-A71 viral loads in the samples were detected with the PanEV primer using a previously described customized primers probe mix (Integrated DNA Technologies, Coralville, IA, USA). The viral gene copy number was determined by absolute quantification and making a standard curve using custom gBlocks™ Gene Fragments (Integrated DNA Technologies) (5′-[…]-3′).
as §5

[3] = Cytotoxicity (Cell Titer-Glo viability) in non-infected RD cells; type: cell-based; settings: human, non-infected RD cells (ATCC CCL-136); for CC50 at 72 h: non-infected RD cells, compounds 0.5–100 μM
Protocol: RD cells (ATCC, CCL-136, Manassas, VA, USA) were maintained in Dulbecco’s modified Eagle’s medium (DMEM) (Gibco, Thermo Fisher Scientific, Waltham, MA, USA) supplemented with 10% fetal bovine serum (FBS) (Gibco), 1% L-glutamine (Gibco), 1% sodium bicarbonate (Gibco), and 1% penicillin-streptomycin (Gibco). The cell culture was incubated at 37 °C under 5% CO2.
as §3
(§9) For determination of compounds’ half maximal cytotoxic concentration (CC50), the non-infected HIOs/cells were treated with compounds (0.5–100 μM) for 72 h. The viability % was calculated as follows: (luminescence reading compound treated)/(luminescence reading DMSO control) × 100. The CC50 was calculated using non-linear regression (curve fit) with GraphPad Prism 9 (GraphPad, La Jolla, CA, USA). For determination of compounds half maximal effective concentration (EC50), the infected HIOs/cells were treated with DMSO (i.e., 0 µM) or compounds (0.15–40 μM) for 72 h. The CPE inhibition % was calculated as follows: (luminescence reading compound treated)/(luminescence reading DMSO control) × 100. The EC50 was calculated using non-linear regression (curve fit) with GraphPad Prism 9 (GraphPad).

[4] = Cytotoxicity (Cell Titer-Glo 3D viability) in non-infected HIOs; type: cell-based; settings: human; for CC50 at 72 h: non-infected HIOs, compounds 0.5–100 μM
Protocol: HiPSCs were cultured in colonies on Matrigel (Corning Inc., Corning, NY, USA) in mTeSR1 medium (STEMCELL Technologies, Vancouver, BC, Canada). HIOs were differentiated from the hiPSC line using STEMdiff™ Intestinal Organoid Kit (STEMCELL Technologies) following the manufacturer’s instructions. Briefly, hiPSCs were plated and differentiated towards definitive endoderm (day 3), and then to mid-/hindgut cells (day 5–9 post seeding). The spheroids generated during the mid-/hindgut stage were embedded in Matrigel and grown in intestinal growth media for further differentiation and expansion into intestinal organoids (30–45 days post hiPSCs seeding). After maturation and for long-term culture, HIOs were passaged twice a week, and medium was changed if needed every two days.
as §3, §9

[5] = tested on: EV-A71 BrCr strain; assay: Viral RNA yield (RT-qPCR) in EV-A71-infected HIOs; type: cell-based, Enterovirus A71; settings: for Selectivity Index (SI) = CC50/EC50: EC50 from RNA yield; for EC50: Enterovirus A, EVA71, EV-A71 MOI 0.1, 72 h, RT-qPCR, read-out: EC50 based on RNA yield
Protocol: as §1, §2, §7, §8, §5

[6] = tested on: EV-A71 BrCr strain; assay: CPE inhibition in EV-A71-infected RD cells; type: cell-based, Enterovirus A71; settings: for Selectivity Index (SI) = CC50/EC50: EC50 from CPE inhibition; for EC50: Enterovirus A, EVA71, EV-A71 MOI 0.1, 72 h, read-out: EC50 based on CPE inhibition; for EV-A71-induced CPE upon visual inspection: 1.25 μM, 72 hpi
Protocol: as §1, §6, §3, §4, §5

[7] = tested on: human rhinovirus (HRV); parameters: method as in PMID 6113314, PMID 2984980; settings: cited from earlier work
[8] = tested on: HRV; parameters: method as in PMID 14638501; settings: human; cited from earlier work
[9] = tested on: HCV; parameters: method as in PMID 29534607, PMID 20006612, PMID 19426125; settings: human, HCV infection, after 8 to 12 weeks of treatment; cited from earlier work
[10] = tested on: enteroids; settings: cited from earlier work

EC50 [1] | EC50 [2] | EC50 [5] | EC50 [6] | Compound | Selectivity Index (SI) = CC50/EC50 [1] | Selectivity Index (SI) = CC50/EC50 [2] | CC50 at 72 h [3] | CC50 at 72 h [4] | Selectivity Index (SI) = CC50/EC50 [5] | Selectivity Index (SI) = CC50/EC50 [6] | EV-A71-induced CPE upon visual inspection [1] | EV-A71-induced CPE upon visual inspection [6] | further results
1000 ± 300 nM | 2000 ± 400 nM | 1500 ± 300 nM | 1300 ± 40 nM | C[C@@]1(O)[C@H](O)[C@@H](CO)O[C@H]1n1ccc(N)nc1=O [2′CMC, 2′-C-methylcytidine] | 48 | >50 | > 100000 nM | 48000 ± 1000 nM | 32 | >76 |  |  | reduction of virus-induced CPE (maximum) ([1]; ATP-based viability assay, plateau from 2.5 μM to 20 μM): up to 66 ± 17%; protection from virus-induced CPE [6]: complete protection
400 ± 200 nM | 200 ± 40 nM | 1400 ± 300 nM | 60 ± 1 nM | CC(C)S(=O)(=O)n1c(N)nc2ccc(/C(=N/O)c3ccccc3)cc21 [Enviroxime, enviroxime] | 60 | 140 | 28000 ± 2000 nM | 24000 ± 7000 nM | 17 | 467 | reduced | reduced | side effects in clinical studies ([7]; HRV infection): gastrointestinal side effects; clinical effects against infection [7]: no significant clinical effects; viability at 72 h, 100 µM ([3]; RD cells, highest tested concentration 100 μM): 20%; viability at 72 h, 100 µM ([4]; HIOs, 100 µM): 0%
 |  |  |  | CC(C)[C@H](N)C(=O)O[C@@H]1[C@@H](CO)O[C@@H](n2ccc(N)nc2=O)[C@]1(C)O [Valopicitabine] |  |  |  |  |  |  |  |  | side effects during clinical study [9]: gastrointestinal side effects
 |  |  |  | CCC(C)n1ncn(-c2ccc(N3CCN(c4ccc(OCC5COC(Cn6cncn6)(c6ccc(Cl)cc6Cl)O5)cc4)CC3)cc2)c1=O (stereo not shown) [itraconazole] |  |  |  |  |  |  |  |  | cytotoxicity in enteroids compared to cell lines [10]: enhanced cytotoxicity

Compound | EC50 [1] | EC50 [2] | EC50 [5] | EC50 [6] | Selectivity Index (SI) = CC50/EC50 [1] | Selectivity Index (SI) = CC50/EC50 [2] | CC50 at 72 h [3] | CC50 at 72 h [4] | Selectivity Index (SI) = CC50/EC50 [5] | Selectivity Index (SI) = CC50/EC50 [6] | EV-A71-induced CPE upon visual inspection [1] | EV-A71-induced CPE upon visual inspection [6] | further results
CCOC(=O)/C=C/[C@H](C[C@@H]1CCNC1=O)NC(=O)[C@@H](CC(=O)[C@@H](NC(=O)c1cc(C)on1)C(C)C)Cc1ccc(F)cc1 [Rupintrivir, rupintrivir] | < 150 nM | < 35 nM | 1700 ± 400 nM | < 35 nM | >667 | >2857 | > 100000 nM | > 100000 nM | >59 | >2857 | reduced | reduced | protection from EV-A71-induced CPE ([1]; lowest concentration tested 0.15 μM): full protection; viral RNA levels ([2]; at all tested concentrations, MOI 0.1, 72 h): 10 ± 3%; protection from EV-A71-induced CPE ([6]; lowest concentration tested 0.035 μM): full protection; adverse side effects or treatment effects in phase II clinical studies [8]: no adverse side effects or treatment effects
